Laboratory results: patent publication US9011589B2, “Magenta dyes and their preparation methods and applications” (Dalian University of Technology, priority 2012, dated 2015)

Experiments:
Assay type in all cases: physicochemical
[1] = Evaluation of water solubility of the dye; conditions: solubility of the dye in water
Description: (D) Evaluation of Water Solubility of the Dye (g/100 g Water)

[2] = Gas (ozone) resistance of the printed images; conditions: grade of color difference ΔE; 40 ppm ozone, 60% RH, 24° C., 6 h
Description: Prepare the ink composition according to the formula described in Table 1 containing the products obtained in the above embodiment as the magenta colorant, and filter the ink composition with a […] membrane filter to obtain the aqueous magenta ink composition of the present invention. Add triethanolamine to adjust the ink composition pH to 8˜10 and add deionized water to make the total volume to reach 100 parts by weight. Use an ink-jet printer (Epson 270 manufactured by Epson Company), glossy photo paper (Epson) and the above described ink compositions for ink-jet printing. Place the printed images in the Ozone Weathering Test Chamber (manufactured by China Surui Company) at 40 ppm ozone, 60% RH and 24° C. for 6 h. Calculate the color difference (ΔE) before and after the test in the same manner as described in (1) above and evaluate it in 3 grades based on the following benchmark: [table]

[3] = Light resistance test of printed images with xenon lamp; conditions: grade of color difference ΔE; ink with 6 parts dye on glossy photo paper; xenon lamp 0.36 W/m^2, 60% RH, 24° C., 50 h
Description: Prepare the ink composition according to the formula described in Table 1 containing the products obtained in the above embodiment as the magenta colorant, and filter the ink composition with a […] membrane filter to obtain the aqueous magenta ink composition of the present invention. Add triethanolamine to adjust the ink composition pH to 8˜10 and add deionized water to make the total volume to reach 100 parts by weight.
Use an ink-jet printer (Epson 270 manufactured by Epson Company), glossy photo paper (Epson) and the above described ink compositions for ink-jet printing.
Irradiate the printed glossy photo paper manufactured by Canon and Epson with Xenon-lamp Weathering Test Chamber ZG-P (manufactured by China Surui Company) at 60% RH and 24° C. with illuminance of 0.36 W/m^2 for 50 h, and check the color difference (ΔE) before and after the test. The color difference (ΔE) is calculated from the differences of values of L*, a*, b* before and after the test in the above described color measurement system (Unterlab) by the followings formula: ΔE=((difference of L*)^2+(difference of a*)^2+(difference of b*)^2)^1/2.
Three grades will be divided for the evaluation based on the following benchmark: […]

[4] = Evaluation of long-term stability of the dye in aqueous solvent systems; parameters: key: ∘: No precipitation; Δ: Slight precipitation; x: Notable; conditions: 20 parts dye, 70 parts water, 10 parts ethylene glycol; 50° C. 7 d, then 0° C. 7 d; precipitation on filtering
Procedure: Heat and dissolve the system consisting of 20 parts of dyes, 70 parts of water and 10 parts of ethylene glycol; after the solution cools down, store it airtight at a constant temperature of 50° C. for 7 d; cool it to 0° C. and store it at the same temperature for 7 d; filter the solution and evaluate it in 3 grades based on the following benchmark: […]

SMILES | Water solubility of the dye [1] | Ozone resistance of printed images [2] | UV resistance of printed images [3] | Long-term stability of the dye in aqueous solvent systems [4]
O=S(=O)([O-])c1cc(Nc2nc(Nc3ccc(/C=C/c4ccc(Nc5nc(Nc6cc(S(=O)(=O)[O-])cc7cc(S(=O)(=O)[O-])c(N=Nc8ccccc8)c(O)c67)nc(N6CCOCC6)n5)cc4S(=O)(=O)[O-])c(S(=O)(=O)[O-])c3)nc(N3CCOCC3)n2)c2c(O)c(N=Nc3ccccc3)c(S(=O)(=O)[O-])cc2c1.[Na+].[Na+].[Na+].[Na+].[Na+].[Na+] [C.I. direct red 227, reference compound] | x (The solubility of the dye in water <15) | x (ΔE > 20) | x (ΔE > 20) | Δ
O=C([O-])CCCS(=O)(=O)c1ccc(S(=O)(=O)[O-])c(Nc2cc(S(=O)(=O)[O-])c3[nH]c(=O)c(C(=O)[O-])c4c3c2C(=O)c2ccccc2-4)c1.[Na+].[Na+].[Na+].[Na+] [Dm1] | ∘ (The solubility of the dye in water >30) | ∘ (ΔE < 10) | ∘ (ΔE < 10) | ∘
Cc1ccc(COC(=O)c2c3c4c(c(Nc5cc(S(=O)(=O)CCCC(=O)[O-])ccc5S(=O)(=O)[O-])cc(S(=O)(=O)[O-])c4[nH]c2=O)C(=O)c2ccccc2-3)cc1.[Na+].[Na+].[Na+] [Dm5] | ∘ (The solubility of the dye in water >30) | ∘ (ΔE < 10) | ∘ (ΔE < 10) | ∘
O=C([O-])CCCS(=O)(=O)c1ccc(S(=O)(=O)[O-])c(Nc2cc(S(=O)(=O)[O-])c3[nH]c(=O)c(C(=O)OCc4cccc([N+](=O)[O-])c4)c4c3c2C(=O)c2ccccc2-4)c1.[Na+].[Na+].[Na+] [Dm7] | ∘ (The solubility of the dye in water >30) | ∘ (ΔE < 10) | ∘ (ΔE < 10) | ∘
O=C([O-])CCCS(=O)(=O)c1cc(S(=O)(=O)[O-])c(Nc2cc(S(=O)(=O)[O-])c3[nH]c(=O)c(C(=O)OCc4cccc5ccccc45)c4c3c2C(=O)c2ccccc2-4)c(S(=O)(=O)[O-])c1.[Na+].[Na+].[Na+].[Na+] [Dp17] | Δ (The solubility of the dye in water >15-20) | ∘ (ΔE < 10) | ∘ (ΔE < 10) | ∘
O=C([O-])CCCS(=O)(=O)c1cc(S(=O)(=O)[O-])c(Nc2cc(S(=O)(=O)[O-])c3[nH]c(=O)c(C(=O)OCc4ccccc4)c4c3c2C(=O)c2ccccc2-4)c(S(=O)(=O)[O-])c1.[Na+].[Na+].[Na+].[Na+] [Dp4] | ∘ (The solubility of the dye in water >30) | ∘ (ΔE < 10) | ∘ (ΔE < 10) | ∘
Cn1c(=O)c(C(=O)OCc2cccc3ccccc23)c2c3c(c(Nc4ccc(S(=O)(=O)[O-])cc4S(=O)(=O)[O-])ccc31)C(=O)c1ccccc1-2.[Na+].[Na+] [Dye2, reference compound] | Δ (The solubility of the dye in water >15-20) | ∘ (ΔE < 10) | ∘ (ΔE < 10) | Δ
O=C([O-])CCCS(=O)(=O)c1cc(S(=O)(=O)[O-])c(Nc2cc(S(=O)(=O)[O-])c3[nH]c(=O)c(C(=O)OCc4cccc(Cl)c4)c4c3c2C(=O)c2ccccc2-4)c(S(=O)(=O)[O-])c1.[Na+].[Na+].[Na+].[Na+] [Dp10] | ∘ (The solubility of the dye in water >30) | ∘ (ΔE < 10) | ∘ (ΔE < 10) | ∘
O=C(Nc1cc(S(=O)(=O)[O-])cc2cc(S(=O)(=O)[O-])c(N=Nc3ccc4cc(S(=O)(=O)CCOS(=O)(=O)[O-])ccc4c3S(=O)(=O)[O-])c(O)c12)c1ccccc1.[Na+].[Na+].[Na+].[Na+] [C.I. reactive red 180, reference compound] |  | x (ΔE > 20) | x (ΔE > 20) | Δ
O=C([O-])CCCS(=O)(=O)c1ccc(S(=O)(=O)[O-])c(Nc2cc(S(=O)(=O)[O-])c3[nH]c(=O)c(C(=O)OCc4ccccc4)c4c3c2C(=O)c2ccccc2-4)c1.[Na+].[Na+].[Na+] [Dm3] | ∘ (The solubility of the dye in water >30) | ∘ (ΔE < 10) | ∘ (ΔE < 10) | ∘
O=C([O-])CCCS(=O)(=O)c1cc(S(=O)(=O)[O-])c(Nc2cc(S(=O)(=O)[O-])c3[nH]c(=O)c(C(=O)OCc4cccc(S(=O)(=O)[O-])c4)c4c3c2C(=O)c2ccccc2-4)c(S(=O)(=O)[O-])c1.[Na+].[Na+].[Na+].[Na+].[Na+] [Dp14] | ∘ (The solubility of the dye in water >30) | ∘ (ΔE < 10) | ∘ (ΔE < 10) | ∘
O=C([O-])CCCS(=O)(=O)c1cc(S(=O)(=O)[O-])c(Nc2cc(S(=O)(=O)[O-])c3[nH]c(=O)c(C(=O)[O-])c4c3c2C(=O)c2ccccc2-4)c(S(=O)(=O)[O-])c1.[Na+].[Na+].[Na+].[Na+].[Na+] [Dp2] | ∘ (The solubility of the dye in water >30) | ∘ (ΔE < 10) | ∘ (ΔE < 10) | ∘
